# Measurements from patent US8022268B2, “Transgenic animal model for alzheimer's disease” (The University of Zurich, priority 2007, dated 2011).
# Legend:
# [1] = test system: brain β-amyloid plaques; assay: Blood brain barrier penetration and binding to Aβ deposits after peripheral administration (double staining with 6E10 and anti-human IgG); assay type: in vivo; settings: 24 month arcAβ mice, 3 mg/kg i.p. weekly for 2 months; 6E10 and anti-human IgG double staining
# Method: ArcAβ mice were generated as described in the previous Examples on a hybrid background of C57B1/6 and DBA2. The test group was backcrossed once to C57B1/6. Mice were kept under standard housing conditions on a reversed 12 h:12 h light/dark cycle and had free access to food and water. The treatment groups were balanced for age and gender.
# Recombinant human anti-Aβ antibody NI-101.10 was produced in stably transfected 293 HEK cells and purified using standard Protein A column purification. Control antibody Humira (Adalimumab, Abbott, Switzerland) was dissolved in medium conditioned by 293 HEK cells and purified as described.
# (§1) 24 month old arcAβ mice were injected weekly i.p. with recombinant human NI-101.10 or Humira control antibody (3 mg/kg body weight) over a time period of 2 months (8 injections). The allocation of mice to the individual groups was: n=[…] and 4 wt for the NI-101.10 treatment groups; n=[…] and 6 wt for the control antibody treatment groups.
# Mice were anesthetized (10 ul/g bw ketamin/xylaxine) and perfused transcardially with PBS. One brain hemisphere was dissected into cortex, hippocampus and cerebellum and immediately frozen on dry-ice for further biochemical analysis. The other hemisphere was fixed in 4% paraformaldehyde and embedded in paraffin. 5 μm sagittal sections were cut with a Leica RM 2135 microtome (Bannockburn, Ill.). […]
# [2] = test system: arcAβ mice; assay: fMRI vascular reactivity to acetazolamide (cerebral blood volume) after passive immunization; assay type: in vivo; settings: transgenic (tg) arcAβ mice after 2 months antibody treatment
# Method: as §1
# ArcAβ mice and their wildtype littermates were measured before (n=3 tg and 3 wt) or after the antibody treatment (n=5 tg NI-101.10, 4 tg Humira, […], 6 wt Humira). Mice were anesthetized with Isofluran, intubated and artificially ventilated during the MR experiment. The mice were placed on a water-heated cradle and all agents were injected via cannula into the tail vein. Experiments were performed on a 4.7 Tesla Pharmascan 47/16 (Bruker BioSpin GmbH, Germany). Scan parameters of the RARE sequence (Hennig et al., Magn. Reson. Med. 3 (1986), 823-833) were set as followed: spatial resolution: 156×156×700 μm^3, temporal resolution: 40 s, repetition time: 2500 ms, echo time (eff. TE): 80.2 ms, field of view (FOV): 2×1.3 cm^2, RARE factor: 32, matrix dimension: 128×128, slice thickness: 0.7 mm, inter-slice distance: 1.2 mm, number of averages: 4, number of slices: 5. fMRI measurement comprised 3 phases: 8 baseline images (S pre) were acquired as reference for the determination of the relative cerebral blood volume (CBVrel) changes. […]
substance,measurement,setting,value
Adalimumab [Humira],binding of human antibody to Aβ deposits in brain sections,[1],No such binding
same,"mean ACBV % (integrated, after acetazolamide 30 mg/kg)",[2],500%
